pIC50: −log10 of the molar value.
Target: human MRGPRD (Homo sapiens, UniProt Q8TDS7)
Test: MRGPRD antagonist activity, IP-One HTRF assay in CHO cells stably expressing human MRGPRD (versus 100 μM β-Alanine agonist)
Format: cell-based
Procedure, shortened: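 CHO cells stably expressing human MRGPRD, plated overnight at 37 °C, were treated with antagonist plus agonist in Tris-HCl/NaCl/LiCl buffer pH 8, incubated 1 h at 37 °C then 1 h at room temperature. IP-1 accumulation read by HTRF; IC50 and percent antagonism of maximum efficacy averaged, SEM reported.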

Chain of human MRGPRD (Q8TDS7 whole entry): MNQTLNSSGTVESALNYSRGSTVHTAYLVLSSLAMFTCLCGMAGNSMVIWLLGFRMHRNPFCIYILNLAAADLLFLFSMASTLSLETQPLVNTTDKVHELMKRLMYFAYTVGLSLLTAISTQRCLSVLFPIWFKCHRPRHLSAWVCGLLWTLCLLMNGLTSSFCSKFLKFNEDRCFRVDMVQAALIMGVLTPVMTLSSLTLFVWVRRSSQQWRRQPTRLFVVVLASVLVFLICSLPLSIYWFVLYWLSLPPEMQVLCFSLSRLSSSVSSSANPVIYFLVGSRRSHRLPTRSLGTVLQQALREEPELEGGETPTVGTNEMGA

| Structure (SMILES) | pIC50 |
| --- | --- |
| O=C(Nc1ccncc1)c1nnn(-c2ccc(-c3n[nH]c4ncccc34)cc2)c1C1CC1 [Compound 7-99] | 6.30 to 7.00 |
| COc1ccc(-c2cccc(-n3nnc(C(=O)Nc4ccncc4)c3C3CC3)c2)cc1OC [Compound 7-313] | 5.52 to 6.00 |
| O=C(Nc1ccncc1)c1nnn(-c2cccc(-c3ccc[nH]3)c2)c1C1CC1 [Compound 7-296] | 5.52 to 6.00 |
| Cc1cc(NC(=O)c2nnn(-c3ccc(-c4ccc(C#N)cc4)cn3)c2C2CC2)ccn1 [Compound 11-2] | 6.30 to 7.00 |
| N#CCc1ccc(-c2ccc(-n3nnc(C(=O)NC4(c5cccnc5)CC4)c3C3CC3)cc2)cc1 [Compound 18-9] | 5.52 to 6.00 |
| COc1cc(C#N)ccc1-c1ccc(-n2nnc(C(=O)Nc3ccncc3)c2C2CC2)cc1 [Compound 7-24] | 6.30 to 7.00 |
| Cc1cncc(C2(NC(=O)c3nnn(-c4ccc(-c5ccc(C#N)cc5)cc4)c3C3CC3)CC2)c1 [Compound 18-5] | 5.52 to 6.00 |
| Cc1nn(C)c(C)c1-c1ccc(-n2nnc(C(=O)NC3CC3)c2C(C)C)cc1 [Compound 17-34] | < 5.52 |
| Cc1cn(C)nc1-c1ccc(-n2nnc(C(=O)Nc3ccncc3)c2C2CC2)cc1 [Compound 7-110] | 6.30 to 7.00 |
| O=C(Nc1ccncc1)c1nnn(-c2ccc(-c3ccc(CC(F)(F)F)cc3)cc2)c1C1CC1 [Compound 7-59] | 6.30 to 7.00 |
| O=C(Nc1ccncc1)c1nnn(-c2ccc(-c3ccnn3CC3CC3)cc2)c1C1CC1 [Compound 7-168] | 5.52 to 6.00 |
| Cc1c(-c2ccc(-n3nnc(C(=O)Nc4ccncc4)c3C3CC3)cc2)c(C#N)nn1C [Compound 7-120] | 6.00 to 6.30 |
| Cc1cncc(CNC(=O)c2nnn(-c3ccc(-c4c(C)nn(-c5ccccc5)c4C)cc3)c2C2CC2)c1 [Compound 9-12] | 6.30 to 7.00 |
| O=C(NC1(c2ccccc2)CCC1)c1nnn(-c2ccc(-c3ccccc3)cc2)c1C1CC1 [Compound 14-6] | < 5.52 |
| Cc1cc(NC(=O)c2nnn(-c3ccc(-c4c(C)nn(C)c4C)cc3)c2C(C)C)ccn1 [Compound 10-10] | > 7.00 |
| O=C(Nc1ccncc1)c1nnn(-c2cccc(-c3cccc(C(F)(F)F)c3)c2)c1C1CC1 [Compound 7-294] | 5.52 to 6.00 |
| COc1ccc(-n2nnc(C(=O)Nc3ccncc3)c2C2CC2)cc1 [Compound 2-4, 5-cyclopropyl-1-(4-methoxyphenyl)-N-(pyridin-4-yl)-1H-1,2,3-triazole-4-carboxamide] | 6.00 to 6.30 |
| O=C(Nc1ccncc1)c1nnn(-c2ccc(-c3cccc(C4CCCCC4)c3)cc2)c1C1CC1 [Compound 7-166] | 5.52 to 6.00 |
| CCc1cccc(-c2ccc(-n3nnc(C(=O)Nc4ccncc4)c3C3CC3)cc2)c1 [Compound 7-91] | 6.30 to 7.00 |
| Cc1cc(NC(=O)c2nnn(-c3ccc(-c4ccc(C#N)c(F)c4)cc3)c2C2CC2)cc(C)n1 [Compound 7-87] | 6.30 to 7.00 |
| Cc1nn(C)c(C)c1-c1ccc(-n2nnc(C(=O)NC3(c4cccnc4)CC3)c2C(C)C)cc1 [Compound 18-23] | 6.30 to 7.00 |
| CN(C)Cc1cccc(-c2ccc(-n3nnc(C(=O)Nc4ccncc4)c3C3CC3)cc2)c1 [Compound 7-146] | 6.00 to 6.30 |
| CC(=O)c1ccc(-c2ccc(-n3nnc(C(=O)Nc4ccncc4)c3C3CC3)c(C)c2)cc1 [Compound 7-231] | 6.30 to 7.00 |
| O=C(Nc1ccncc1)c1nnn(C2CCCC2)c1C1CC1 [Compound 6-5] | 5.52 to 6.00 |
| Cc1cccc(-c2ccc(-n3nnc(C(=O)Nc4ccncc4)c3C3CC3)cc2)c1 [Compound 7-113] | 6.00 to 6.30 |
| CC(=O)c1cc(NC(=O)c2nnn(-c3ccc(-c4ccccc4)cc3)c2C2CC2)ccn1 [Compound 14-88] | 5.52 to 6.00 |
| COc1ccc(C2(NC(=O)c3nnn(-c4ccc(-c5ccc(C#N)c(F)c5)cc4)c3C3CC3)CC2)cn1 [Compound 9-35] | 6.30 to 7.00 |
| Cc1nn(C)c2ncnc(NC(=O)c3nnn(-c4ccc(-c5ccccc5)cc4)c3C3CC3)c12 [Compound 14-14] | < 5.52 |
| Cc1nn(C)c(C)c1-c1ccc(-n2nnc(C(=O)Nc3ccccc3)c2C(C)C)cc1 [Compound 17-16] | 6.30 to 7.00 |

More lines, now with the values ahead:

| pIC50 | Structure (SMILES) |
| --- | --- |
| 5.52 to 6.00 | O=C(NC1(c2cncc(Cl)c2)CC1)c1nnn(-c2ccc(-c3cnn(Cc4ccccc4)c3)cc2)c1C1CC1 [Compound 18-19] |
| < 5.52 | Cc1ccc(CNC(=O)c2nnn(-c3cccc(-c4ccn(C)n4)c3)c2C2CC2)cn1 [Compound 7-332] |
| 6.30 to 7.00 | N#Cc1ccc(-c2ccc(-n3nnc(C(=O)Nc4ccncc4)c3C3CC3)cc2)c(F)c1 [Compound 7-54] |
| 6.30 to 7.00 | Cc1cc(NC(=O)c2nnn(-c3ccc(-c4ccc(C#N)cc4)cc3)c2C2CC2)ccn1 [Compound 7-61] |
| 6.30 to 7.00 | Cc1cc(NC(=O)c2nnn(-c3cccc(-c4ccn(C5CC5)n4)c3)c2C2CC2)ccn1 [Compound 7-233] |
| 6.30 to 7.00 | Cc1ccc(-c2ccc(-n3nnc(C(=O)Nc4ccncc4)c3C3CC3)cc2)cc1 [Compound 7-44] |
| 6.30 to 7.00 | Cc1c(-c2ccc(-n3nnc(C(=O)Nc4ccncc4)c3C3CC3)cc2)cnn1C [Compound 7-50] |
| 6.00 to 6.30 | Cc1nn(C(F)F)cc1-c1ccc(-n2nnc(C(=O)Nc3ccncc3)c2C2CC2)cc1 [Compound 7-118] |
| 5.52 to 6.00 | Cc1ccc(-c2cccc(-n3nnc(C(=O)Nc4ccncc4)c3C3CC3)c2)cc1 [Compound 7-318] |
| 5.52 to 6.00 | O=C(Nc1ccncc1)c1nnn(-c2cccc(-c3ccc(-c4ccccc4)cc3)c2)c1C1CC1 [Compound 7-312] |
| 5.52 to 6.00 | O=C(NC1CCSCC1)c1nnn(-c2ccc(-c3ccccc3)cc2)c1C1CC1 [Compound 14-30] |
| 6.00 to 6.30 | Cc1ccc(CNC(=O)c2nnn(-c3ccc(-c4ccccc4)cc3)c2C2CC2)cn1 [Compound 14-20] |
| 6.30 to 7.00 | CC(C)c1cc(NC(=O)c2nnn(-c3ccc(-c4ccccc4)cc3)c2C2CC2)ccn1 [Compound 14-16, 1-([1,1′-biphenyl]-4-yl)-5-cyclopropyl-N-(2-isopropylpyridin-4-yl)-1H-1,2,3-triazole-4-carboxamide] |
| 6.30 to 7.00 | Cc1nn(C)c(C)c1-c1ccc(-n2nnc(C(=O)Nc3ccncc3)c2C2CC2)c(OC(F)(F)F)c1 [Compound 7-239] |
| 5.52 to 6.00 | CCn1cc(CNC(=O)c2nnn(-c3ccc(-c4cccc(C#N)c4)cc3)c2C2CC2)cn1 [Compound 15-15] |
| 5.52 to 6.00 | O=C(Nc1ccncc1)c1nnn(-c2ccc(-c3ccccc3C(F)(F)F)cc2)c1C1CC1 [Compound 7-169] |
| < 5.52 | Cn1ncc(NC(=O)c2nnn(-c3ccc(-c4ccccc4)cc3)c2C2CC2)c1Cl [Compound 14-10] |
| 5.52 to 6.00 | O=C(Nc1ccncc1)c1nnn(-c2cccc(-c3ccccc3C(F)(F)F)c2)c1C1CC1 [Compound 7-285] |
| 6.00 to 6.30 | Cc1csc(-c2ccc(-n3nnc(C(=O)Nc4ccncc4)c3C3CC3)cc2)n1 [Compound 7-140] |
| 5.52 to 6.00 | O=C(Nc1ccncc1)c1nnn(-c2ccc(-c3cncs3)cc2)c1C1CC1 [Compound 7-187] |
| 6.00 to 6.30 | CC(=O)c1ccc(-c2cccc(-n3nnc(C(=O)Nc4ccncc4)c3C3CC3)c2)cc1F [Compound 7-280] |
| 6.30 to 7.00 | Cc1noc(C)c1-c1ccc(-n2nnc(C(=O)Nc3ccncc3)c2C2CC2)cc1 [Compound 7-40] |
| 6.00 to 6.30 | COc1cc(C)ccc1-n1nnc(C(=O)Nc2ccncc2)c1C1CC1 [Compound 5-5] |
| 6.00 to 6.30 | N#CCc1ccc(-c2cccc(-n3nnc(C(=O)Nc4ccncc4)c3C3CC3)c2)cc1 [Compound 7-273] |
| < 5.52 | N#CCc1ccc(-c2cccc(-n3nnc(C(=O)NC4(c5cccnc5)CC4)c3C3CC3)c2)c(F)c1 [Compound 7-330] |

From patent US20260001871A1, “TRIAZOLE DERIVATIVES AS MODULATORS OF MAS-RELATED G-PROTEIN RECEPTOR D” (ESCIENT PHARMACEUTICALS, INC., priority 2022, published 2026)
